Four compounds from PMC10269819, “Mitochondrial ADP/ATP Carrier 1 Is Important for the Growth of Toxoplasma Tachyzoites” (Microbiology Spectrum, 2023) can be followed below.

Common to all, as to assay type: cell-based
For assay [1], the target named is T1, TgAAC1 (Toxoplasma gondii, UniProt Q9BJ36).
T1 construct: full-length cDNA (318 residues) in pET-16b, HA-tagged; expressed in membrane of intact E. coli BL21(DE3)
T1 sequence (Q9BJ36 1-318): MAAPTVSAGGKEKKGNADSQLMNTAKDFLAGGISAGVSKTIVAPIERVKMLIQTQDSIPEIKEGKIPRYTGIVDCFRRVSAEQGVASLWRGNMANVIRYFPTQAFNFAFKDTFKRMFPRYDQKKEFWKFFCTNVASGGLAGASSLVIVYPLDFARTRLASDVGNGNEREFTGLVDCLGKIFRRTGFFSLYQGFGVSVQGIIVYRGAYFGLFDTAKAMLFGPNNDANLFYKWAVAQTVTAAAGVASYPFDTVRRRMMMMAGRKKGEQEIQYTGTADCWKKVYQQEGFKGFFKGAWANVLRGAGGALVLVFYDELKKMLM
Briefly: competition with [α-32P]ATP uptake by intact induced E. coli cells. The following applies: unlabelled competitor 2.5 μM (100-fold excess); 25 nM [α-32P]ATP; 10 min; 50 mM potassium phosphate pH 7.0; 30 °C.

The target in assay [2] is T1, TgAAC1. The description is as above. The note with it: unlabelled competitor 2.5 μM (100-fold excess); 25 nM [α-32P]ATP; 10 min; 50 mM potassium phosphate pH 7.0; 30 °C. This is another data set of the same source.
Assay [3] deals with T1, TgAAC1. Briefly: uptake of [α-32P]ATP by intact induced E. coli cells. The note with it: labelled compound; 25 nM [α-32P]ATP; 50 mM potassium phosphate pH 7.0; 30 °C; uninduced cells as control.

As to `Nc1ncnc2c1ncn2[C@@H]1O[C@H](COP(=O)(O)OP(=O)(O)O)[C@@H](O)[C@H]1O` [ADP], the “% reduction of [α-32P]-ATP transport at 2.5 μM” value at TgAAC1 [1] is reported as “~ approximately 90%”.

Regarding `Nc1ncnc2c1ncn2[C@@H]1O[C@H](COP(=O)(O)O)[C@@H](O)[C@H]1O` [AMP], the “% reduction of [α-32P]-ATP uptake at 2.5 μM” value at TgAAC1 [2] stood at 40%.

For the compound `Nc1ncnc2c1ncn2[C@@H]1O[C@H](COP(=O)(O)OP(=O)(O)OP(=O)(O)O)[C@@H](O)[C@H]1O` [ATP], the “% reduction of [α-32P]-ATP transport at 2.5 μM” value on TgAAC1 [1] is recorded as “~ approximately 90%”. For the same compound, the “uptake of [α-32P]ATP by intact induced E. coli cells” value on TgAAC1 [3] was “TgAAC1 could take up more ATP after induction compared to the noninduced group”.

Turning to `Nc1ccn([C@@H]2O[C@H](COP(=O)(O)OP(=O)(O)OP(=O)(O)O)[C@@H](O)[C@H]2O)c(=O)n1` [CTP], the “% reduction of [α-32P]-ATP uptake at 2.5 μM” value on TgAAC1 [2] amounted to 45%.
